Reference: patent US12257224B2, “Methods of administration for highly water-soluble salts of a short acting phenylalkylamine calcium channel blocker” (Milestone Pharmaceuticals Inc., priority 2021, dated 2025)

Key:
[1] = Formation of concentrated aqueous acid addition salt solutions of compound I; format: physicochemical; conditions: free base treated with methanesulfonic acid or acetic acid
[2] = Permeation of compound I through the nasal epithelium with EDTA in the formulation
Excerpt: The nasal vestibule, which accounts for approximately 3-4% of the surface area of the nasal cavity, lacks tight junctions altogether and is thus not affected by calcium chelating agents. […] As such, it has been postulated that the nasal epithelium is not susceptible to permeability modulation by EDTA (Aungst, et al., Pharma. Res., 1998, 5:305-308). Additionally, the ability of EDTA to increase permeation of a compound through the nasal epithelium is attenuated as the molecular weight of the compound increases (Nakanishi, et al., Chem. Pharm. Bull., 1984, 32:1628-1632).

[3] = Phase 1 study (doses up to 140 mg; PR interval, MFD, TEAEs); format: in vivo, human
[4] = Method: Randomized, double-blind, placebo-controlled, ethnobridging PK/PD study, 35, 70 and 105 mg doses were evaluated.
[5] = tested on: induced PSVT; assay: Phase 2 study: termination of induced PSVT; format: in vivo, human; conditions: for mean reduction in systolic blood pressure (SBP) versus baseline: between 4 and 10 minutes after administration
Method: In a Phase 2 study, four doses (35, 70, 105, and 140 mg) were tested.

[6] = tested on: PSVT; assay: Example 2: Phase 3 study of self-administered 70 mg dose for PSVT in an at-home setting; format: in vivo, human
Method: A multi-center, randomized, double-blind, placebo-controlled study to evaluate the efficacy and safety of a 70 mg self-administered dose of compound I in an at-home setting was conducted. […] PSVT episodes were documented by an ambulatory Cardiac Monitoring System (CMS) placed on the chest by the patient or caregiver when symptoms began and were recorded at least 5 hours of continuous electrocardiogram (ECG).
The primary efficacy endpoint was defined as an adjudicated termination of a positively adjudicated episode of PSVT and conversion to sinus rhythm for at least 30 seconds. The primary efficacy endpoint was evaluated using the time to conversion of an episode of PSVT to sinus rhythm after study drug administration as the primary efficacy variable. The study included a screening visit, a test dose randomization visit, follow-up visits, a treatment period, and a final study visit. Before randomization, all patients received a 70 mg test dose of compound I to evaluate tolerability. The test dose administration took place at the study site under medical supervision while the patient was in sinus rhythm (SR). Patients who passed the test dose were randomized in a 2:1 ratio to 70 mg compound I or placebo. During the treatment period, all randomized patients performed a sequence of steps upon self-identifying symptoms of an episode of PSVT, including contacting a telephone coach for assistance on study procedures, applying a CMS on their chest, performing a vagal maneuver (VM), and study drug self-administration.
For administration, the patients placed the applicator of the system into their nose. The subject's held the nasal delivery system between the second and third fingers, with the thumb placed on the actuator. […] The subjects then apply pressure to the actuator, which forces the liquid solution containing the dissolved acetate salt of compound I through the device, causing the solution to be released from the tip of the applicator as a spray. The solution was administered to the patients as two single pump spray dosages in order to deliver 70 mg of compound I to the nasal epithelium.
The presence of an episode of PSVT and termination were evaluated by an independent Adjudication Committee. The Adjudication Committee's evaluations were done using the complete CMS ECG recorded during the patient's PSVT episode.

[7] = tested on: PSVT; assay: Example 5: heart rate during PSVT prior to conversion to sinus rhythm; format: in vivo, human
Excerpt: Each PSVT was documented by an ambulatory cardiac monitoring system that was placed on the chest after symptoms began. Baseline (average of four values before drug administration), and every minute of heart rate data were captured from baseline until one minute before the PSVT was converted to sinus rhythm. […]

[8] = patients who converted to sinus rhythm

With COC(=O)c1cccc(CCN(C)CCCC(C#N)(c2ccc(OC)c(OC)c2)C(C)C)c1 (stereo not drawn) [compound I, methyl 3-(2-((4-cyano-4-(3,4-dimethoxyphenyl)-5-methylhexyl)(methyl)amino)ethyl)benzoate] the “salt solution concentration attainable” value [1] was “concentrations sufficient for nasal administration”, the “permeation through the nasal epithelium” value [2] was “increased the permeation of compound I through the nasal epithelium” and the “PR interval of the ECG” value ([3]; 4 highest doses tested: 30, 60, 105 and 140 mg) was “produced an increase in the PR interval of the ECG”. For the same compound, the “Treatment Emergent Adverse Effects (TEAEs)” value ([3]; doses higher than 70 mg) was “an increase in Treatment Emergent Adverse Effects (TEAEs), mainly related to nasal irritation”, the “drug exposure and PR interval” value ([3]; two 30 mg doses 10 minutes apart vs single 30 mg dose) was “drug exposure and PR interval increased and remained elevated for a longer period” and the “time at which pharmacodynamic effect began to decrease” value ([4]; 35, 70 and 105 mg doses) was 15 min. The “time to increase of PR interval and HR” value ([4]; 35, 70 and 105 mg doses) was ≤ 10 min, the “duration of pharmacodynamic effect” value ([4]; duration of PR prolongation exceeding 10% from baseline) was 30 to 45 min and the “exposure, dose proportionality” value ([4]; human, in vivo) was “increased in a dose proportional manner between 35 and 70 mg but not between the 70 and 105 mg doses”. The overall success rate ([5]; 35 mg, at 15 minutes) was 65%, the “treatment effect compared to placebo” value ([5]; 35 mg, at 15 minutes) was 30% and the “mean reduction in systolic blood pressure (SBP) versus baseline” value ([5]; 105 mg) was 11.4%. The “mean reduction in systolic blood pressure (SBP) versus baseline” value ([5]; 140 mg) was 15.6%, the “termination of induced PSVT within 15 minutes of dosing” value ([5]; 70, 105 and 140 mg vs placebo) was “statistically significantly superior compared with placebo” and the “time to conversion of PSVT to sinus rhythm (SR)” value ([5]; 70, 105 and 140 mg vs placebo) was “shorter”. For the same compound, the tolerability ([5]; NS 70 mg) was “well tolerated”, the “mean SBP” value ([5]; doses of 35 and 70 mg) was “did not drop” and the “incidences of severe adverse events or adverse events of interest vs placebo” value ([6]; 70 mg) was “no significant differences”. For the same compound, the “median time to conversion” value ([6]; 70 mg) was 25 min, the “most common adverse events” value ([6]; 70 mg) was “local to the nose, including nasal irritation and congestion” and the “patients converted to SR within 30 minutes after study drug administration” value ([6]; 70 mg) was 54%. The “patient reported treatment satisfaction (TSQM-9)” value ([6]; 70 mg vs placebo, secondary endpoint) was “nominal statistically significant improvements in favor of compound I over placebo”, the “hazard ratio HR (95% CI), time to conversion of PSVT to SR vs placebo” value ([6]; 70 mg, 5-hour observation period) was 1.086 (0.726, 1.623) and the safety and tolerability ([6]; 70 mg, over 5 hours following treatment, more than 100 patients in PSVT) was “safe and well tolerated”. For the same compound, the “absolute difference in conversion rate vs placebo by 30 minutes” value ([6]; 70 mg, post hoc analysis) was ~19%, the “mean change in heart rate from baseline (±SE)” value (shortened to “mean change … (±SE)”) ([7]; 70 mg, 3 min, during PSVT) was −10 bpm and the “mean change … (±SE)” value ([7]; 70 mg, 10 min, during PSVT) was −16 bpm. For the same compound, the “mean change … (±SE)” value ([7]; 70 mg, 30 min, during PSVT) was −14 bpm, the “mean change … (±SE)” value ([7]; 70 mg, 40 min, during PSVT) was −13 bpm and the “persistence of decrease in heart rate” value ([7]; 70 mg, during PSVT) was “sustained through the 60-minute observation period”. For the same compound, the “mean change … (±SE)” value ([7]; 70 mg, within the first minute, during PSVT) was −5 bpm, the “maximal change from baseline in heart rate, converters to sinus rhythm in <30 minutes versus >30 minutes” value [7, 8] was “significant difference” and the “maximal change from baseline in heart rate, converters to sinus rhythm in <60 minutes versus >60 minutes” value [7, 8] was “significant difference”.
